Source: patent publication US6518243B1, “Desleucyl glycopeptide antibiotics and methods of making same” (Trustees of Princeton University, priority 1999, dated 2003)

Columns and labels:
Experiment in all cases: Zone of inhibition screen, 96 well agar array format
Format in all cases: cell-based
Set-up in all cases: scale not given here
[1] = test system: S. epidermidis (ATCC 12228)
Summary of the method: (§1)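 Panel screening of every compound against several bacterial strains, among them E. faecium ATCC 49624, was done in a 96-well agar array.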

[2] = test system: E. faecalis (CL 4877)
Summary of the method: as §1

[3] = test system: S. aureus (ATCC 29213)
Summary of the method: as §1

[4] = zone of inhibition relative to 1 mg/ml p-chlorobiphenylvancomycin
[5] = zone of inhibition relative to 1 mg/ml stock solution of p-chlorobiphenylvancomycin

CSCCC(NC=O)C(=O)NC1C(=O)NC(CC(N)=O)C(=O)NC2C(=O)NC3C(=O)NC(C(=O)NC(C(=O)O)c4cc(O)cc(O)c4-c4cc3ccc4O)C(O)c3ccc(c(Cl)c3)Oc3cc2cc(c3OC2OC(CO)C(O)C(O)C2OC2CC(C)(NCc3ccc(-c4ccc(Cl)cc4)cc3)C(O)C(C)O2)Oc2ccc(cc2Cl)C1O (mixture of isomers) [Compound 326]
2: zone score, S. epidermidis ATCC 12228 [1, 4] | zone score, E. faecalis CL 4877 [2, 4] | zone score, S. aureus ATCC 29213 [3, 4]

CC(N)C(=O)NC(C)C(=O)NC1C(=O)NC(CC(N)=O)C(=O)NC2C(=O)NC3C(=O)NC(C(=O)NC(C(=O)O)c4cc(O)cc(O)c4-c4cc3ccc4O)C(O)c3ccc(c(Cl)c3)Oc3cc2cc(c3OC2OC(CO)C(O)C(O)C2OC2CC(C)(NCc3ccc(-c4ccc(Cl)cc4)cc3)C(O)C(C)O2)Oc2ccc(cc2Cl)C1O (stereo not drawn) [Compound 35]
2: zone score, S. epidermidis ATCC 12228 [1, 5] | zone score, E. faecalis CL 4877 [2, 5] | zone score, S. aureus ATCC 29213 [3, 5]

COc1cc(OC)c(CNC(=O)CC(N)C(=O)NC2C(=O)NC(CC(N)=O)C(=O)NC3C(=O)NC4C(=O)NC(C(=O)NC(C(=O)O)c5cc(O)cc(O)c5-c5cc4ccc5O)C(O)c4ccc(c(Cl)c4)Oc4cc3cc(c4OC3OC(CO)C(O)C(O)C3OC3CC(C)(NCc4ccc(-c5ccc(Cl)cc5)cc4)C(O)C(C)O3)Oc3ccc(cc3Cl)C2O)c(OC)c1 (stereo not drawn) [Compound 45]
2: zone score, S. epidermidis ATCC 12228 [1, 5] | zone score, E. faecalis CL 4877 [2, 5] | zone score, S. aureus ATCC 29213 [3, 5]

CC1OC(OC2C(Oc3c4cc5cc3Oc3ccc(cc3Cl)C(O)C3NC(=O)C(NC(=O)C5NC(=O)C(CC(N)=O)NC(=O)C(NC(=O)C(N)CSCCO)C(O)c5ccc(c(Cl)c5)O4)c4ccc(O)c(c4)-c4c(O)cc(O)cc4C(C(=O)O)NC3=O)OC(CO)C(O)C2O)CC(C)(NCc2ccc(-c3ccc(Cl)cc3)cc2)C1O (stereo not drawn) [Compound 48]
2: zone score, S. epidermidis ATCC 12228 [1, 5] | zone score, E. faecalis CL 4877 [2, 5] | zone score, S. aureus ATCC 29213 [3, 5]

CC1OC(OC2C(Oc3c4cc5cc3Oc3ccc(cc3Cl)C(O)C3NC(=O)C(NC(=O)C5NC(=O)C(CC(N)=O)NC(=O)C(NC(=O)C5CC(O)CN5)C(O)c5ccc(c(Cl)c5)O4)c4ccc(O)c(c4)-c4c(O)cc(O)cc4C(C(=O)O)NC3=O)OC(CO)C(O)C2O)CC(C)(NCc2ccc(-c3ccc(Cl)cc3)cc2)C1O (stereo not drawn) [Compound 54]
2: zone score, S. epidermidis ATCC 12228 [1, 5] | zone score, E. faecalis CL 4877 [2, 5] | zone score, S. aureus ATCC 29213 [3, 5]

CC1OC(OC2C(Oc3c4cc5cc3Oc3ccc(cc3Cl)C(O)C3NC(=O)C(NC(=O)C5NC(=O)C(CC(N)=O)NC(=O)C(NC(=O)CC(N)C(N)=O)C(O)c5ccc(c(Cl)c5)O4)c4ccc(O)c(c4)-c4c(O)cc(O)cc4C(C(=O)O)NC3=O)OC(CO)C(O)C2O)CC(C)(NCc2ccc(-c3ccc(Cl)cc3)cc2)C1O (stereo not drawn) [Compound 59]
2: zone score, S. epidermidis ATCC 12228 [1, 5] | zone score, E. faecalis CL 4877 [2, 5] | zone score, S. aureus ATCC 29213 [3, 5]

CC1OC(OC2C(Oc3c4cc5cc3Oc3ccc(cc3Cl)C(O)C3NC(=O)C(NC(=O)C5NC(=O)C(CC(N)=O)NC(=O)C(NC(=O)CCCN)C(O)c5ccc(c(Cl)c5)O4)c4ccc(O)c(c4)-c4c(O)cc(O)cc4C(C(=O)O)NC3=O)OC(CO)C(O)C2O)CC(C)(NCc2ccc(-c3ccc(Cl)cc3)cc2)C1O (stereo not drawn) [Compound 65]
2: zone score, S. epidermidis ATCC 12228 [1, 5] | zone score, E. faecalis CL 4877 [2, 5] | zone score, S. aureus ATCC 29213 [3, 5]

COc1cc(OC)c(CNC(=O)CCC(N)C(=O)NC2C(=O)NC(CC(N)=O)C(=O)NC3C(=O)NC4C(=O)NC(C(=O)NC(C(=O)O)c5cc(O)cc(O)c5-c5cc4ccc5O)C(O)c4ccc(c(Cl)c4)Oc4cc3cc(c4OC3OC(CO)C(O)C(O)C3OC3CC(C)(NCc4ccc(-c5ccc(Cl)cc5)cc4)C(O)C(C)O3)Oc3ccc(cc3Cl)C2O)c(OC)c1 (stereo not drawn) [Compound 66]
2: zone score, S. epidermidis ATCC 12228 [1, 5] | zone score, E. faecalis CL 4877 [2, 5] | zone score, S. aureus ATCC 29213 [3, 5]

CC1OC(OC2C(Oc3c4cc5cc3Oc3ccc(cc3Cl)C(O)C(NC(=O)C3CCCN3C(=O)C3CCCN3)C(=O)NC(CC(N)=O)C(=O)NC5C(=O)NC3C(=O)NC(C(=O)NC(C(=O)O)c5cc(O)cc(O)c5-c5cc3ccc5O)C(O)c3ccc(c(Cl)c3)O4)OC(CO)C(O)C2O)CC(C)(NCc2ccc(-c3ccc(Cl)cc3)cc2)C1O (stereo not drawn) [Compound 86]
2: zone score, S. epidermidis ATCC 12228 [1, 5] | zone score, E. faecalis CL 4877 [2, 5] | zone score, S. aureus ATCC 29213 [3, 5]

CC(=O)OCC(N)C(=O)NC1C(=O)NC(CC(N)=O)C(=O)NC2C(=O)NC3C(=O)NC(C(=O)NC(C(=O)O)c4cc(O)cc(O)c4-c4cc3ccc4O)C(O)c3ccc(c(Cl)c3)Oc3cc2cc(c3OC2OC(CO)C(O)C(O)C2OC2CC(C)(NCc3ccc(-c4ccc(Cl)cc4)cc3)C(O)C(C)O2)Oc2ccc(cc2Cl)C1O (stereo not drawn) [Compound 87]
2: zone score, S. epidermidis ATCC 12228 [1, 5] | zone score, E. faecalis CL 4877 [2, 5] | zone score, S. aureus ATCC 29213 [3, 5]

CC1OC(OC2C(Oc3c4cc5cc3Oc3ccc(cc3Cl)C(O)C3NC(=O)C(NC(=O)C5NC(=O)C(CC(N)=O)NC(=O)C(NC(=O)CC[S+](C)C)C(O)c5ccc(c(Cl)c5)O4)c4ccc(O)c(c4)-c4c(O)cc(O)cc4C(C(=O)O)NC3=O)OC(CO)C(O)C2O)CC(C)(NCc2ccc(-c3ccc(Cl)cc3)cc2)C1O (stereo not drawn) [Compound 94]
2: zone score, S. epidermidis ATCC 12228 [1, 5] | zone score, E. faecalis CL 4877 [2, 5] | zone score, S. aureus ATCC 29213 [3, 5]

CC1OC(OC2C(Oc3c4cc5cc3Oc3ccc(cc3Cl)C(O)C3NC(=O)C(NC(=O)C5NC(=O)C(CC(N)=O)NC(=O)C(NC(=O)CCO)C(O)c5ccc(c(Cl)c5)O4)c4ccc(O)c(c4)-c4c(O)cc(O)cc4C(C(=O)O)NC3=O)OC(CO)C(O)C2O)CC(C)(NCc2ccc(-c3ccc(Cl)cc3)cc2)C1O (stereo not drawn) [Compound 106]
2: zone score, S. epidermidis ATCC 12228 [1, 5] | zone score, E. faecalis CL 4877 [2, 5] | zone score, S. aureus ATCC 29213 [3, 5]

CC(=O)N1CCCC1C(=O)NC1C(=O)NC(CC(N)=O)C(=O)NC2C(=O)NC3C(=O)NC(C(=O)NC(C(=O)O)c4cc(O)cc(O)c4-c4cc3ccc4O)C(O)c3ccc(c(Cl)c3)Oc3cc2cc(c3OC2OC(CO)C(O)C(O)C2OC2CC(C)(NCc3ccc(-c4ccc(Cl)cc4)cc3)C(O)C(C)O2)Oc2ccc(cc2Cl)C1O (stereo not drawn) [Compound 116]
2: zone score, S. epidermidis ATCC 12228 [1, 5] | zone score, E. faecalis CL 4877 [2, 5] | zone score, S. aureus ATCC 29213 [3, 5]

CC(=O)OC(CC(=O)NC1C(=O)NC(CC(N)=O)C(=O)NC2C(=O)NC3C(=O)NC(C(=O)NC(C(=O)O)c4cc(O)cc(O)c4-c4cc3ccc4O)C(O)c3ccc(c(Cl)c3)Oc3cc2cc(c3OC2OC(CO)C(O)C(O)C2OC2CC(C)(NCc3ccc(-c4ccc(Cl)cc4)cc3)C(O)C(C)O2)Oc2ccc(cc2Cl)C1O)C[N+](C)(C)C (stereo not drawn) [Compound 119]
2: zone score, S. epidermidis ATCC 12228 [1, 5] | zone score, E. faecalis CL 4877 [2, 5] | zone score, S. aureus ATCC 29213 [3, 5]

CC(=O)NCC(=O)NCC(=O)NC1C(=O)NC(CC(N)=O)C(=O)NC2C(=O)NC3C(=O)NC(C(=O)NC(C(=O)O)c4cc(O)cc(O)c4-c4cc3ccc4O)C(O)c3ccc(c(Cl)c3)Oc3cc2cc(c3OC2OC(CO)C(O)C(O)C2OC2CC(C)(NCc3ccc(-c4ccc(Cl)cc4)cc3)C(O)C(C)O2)Oc2ccc(cc2Cl)C1O (stereo not drawn) [Compound 120]
2: zone score, S. epidermidis ATCC 12228 [1, 5] | zone score, E. faecalis CL 4877 [2, 5] | zone score, S. aureus ATCC 29213 [3, 5]

CC1OC(OC2C(Oc3c4cc5cc3Oc3ccc(cc3Cl)C(O)C3NC(=O)C(NC(=O)C5NC(=O)C(CC(N)=O)NC(=O)C(NC(=O)CO)C(O)c5ccc(c(Cl)c5)O4)c4ccc(O)c(c4)-c4c(O)cc(O)cc4C(C(=O)O)NC3=O)OC(CO)C(O)C2O)CC(C)(NCc2ccc(-c3ccc(Cl)cc3)cc2)C1O (stereo not drawn) [Compound 158]
2: zone score, S. epidermidis ATCC 12228 [1, 5] | zone score, E. faecalis CL 4877 [2, 5] | zone score, S. aureus ATCC 29213 [3, 5]
